# Measurements published in patent US10202604B2, “Methods of using microRNA-141” (Stemirna Therapeutics Co., Ltd., priority 2016, dated 2019).
# Key:
# [1] = tested on: epithelial to mesenchymal transition markers in Du145 cells; test: qPCR analysis of epithelial to mesenchymal transition markers; format: cell-based, human
# Description: FIGS. 3A-3J show partial suppression of epithelial to mesenchymal transition by miR-141 and CD44 as a direct target of miR-141. FIGS. 3A-3B show qPCR analysis of epithelial to mesenchymal transition markers in bulk (FIG. 3A) or CD44^+ (FIG. 3B) Du145 cells transfected with the miR-141 oligos (30 nM; 48 h). Results were presented as the relative expression levels over the cells transfected with the NC oligos. […] GAPDH was used as control and the relative protein levels after normalizing to GAPDH and NC controls were indicated below each lane. […] Shown below is the actual sequence in the region with the mutated miR-141 binding sequence indicated in grey (below). […] Shown are representative images. […] Du145 cells were co-transfected with NC or miR-141 oligos (30 nM) together with pBabe empty vector or pBabe-CD44 vector. After 48 h, cells were harvested for invasion assays. Bars, mean±SD. *, P<0.05; **, P<0.01.
# Total RNA was extracted using microRNA isolation kit (Life Technologies) according to the manufacturer's instructions. microRNA qPCRs were performed using TaqMan microRNA assays (Life Technologies). qPCR data for microRNAs were normalized to RNU48 whereas qPCR data for mRNAs were normalized to GAPDH.
# [2] = tested on: RAC1, CDC42, ARPC5 and CDC42EP3; test: Western blotting of Rho GTPase signaling members; format: cell-based, human; conditions: Du145 cells, miR-141 over-expression
# Description: (§1) Du145 cells transfected with NC or miR-141 oligos at the two doses and time intervals indicated were used in Western blotting. Indicated below are relative expression levels (normalized to respective GAPDH and compared to NC) of each protein determined by densitometric scanning of the individual bands. […] Bars, mean±SD. *P<0.05; **P<0.01. […] Du145 cells were co-transfected with NC or miR-141 oligos (30 nM) in combination with pcDNA3.1 (control) vector or pcDNA-RAC1 or pcDNA-CDC42 expression vector. After 48 h, cells were harvested for invasion assays. […] Du145 cells were infected with Lenti-141 or control lentivirus (MOI 10, 48 h) and then harvested to measure the Rho GTPase activities. Bars, mean±SD. *P<0.05. […] Du145 cells were transfected with the antisense oligos to NC or miR-141 (anti-141; 30 nM) and then used in invasion assays (FIG. 5E). In FIG. 5F and FIG. 5G Du145 cells were transfected with 10 nM of scramble siRNA control (siCon) or siRNAs targeting RAC1 (FIG. 5F) or CDC42 (FIG. 5G), either alone or in combination of anti-141 (30 nM). 48 h later, cells were harvested for invasion assays. Bars, mean±SD. *P<0.05; **P<0.01.
# Human ARPC5 3'-UTR = test: 3'-UTR luciferase reporter assay; format: cell-based; conditions: Du145 cells; 30 nM miR-141 vs NC oligos
# Description: as §1
# (§2) The human CD44 3′-UTR was amplified from Du145 genomic DNA using primers 5′-[…]-3′ (SEQ ID NO: 2) and 5′-[…]-3′ (SEQ ID NO: 3), as previously described (13). For site-specific mutagenesis, the region in the CD44 3′-UTR (SEQ ID NO: 4, shown with uracils) complementary to the seed sequence of miR-141 (SEQ ID NO: 1) were mutated (TAGTGTT to GGCGCGG; see FIG. 3D). The human EZH2 3′-UTR was amplified from Du145 genomic DNA using primers 5′-GAGCTC-CATCTGCTACCTCCTCCCC-3′ (SEQ ID NO: 6) and 5′-[…]-3′ (SEQ ID NO: 7). For site-specific mutagenesis, the region complementary to the seed sequence of miR-141 was mutated (AAAGTGTT to TATCACAA; see FIG. 6A). The PCR fragments were cloned into pGEM-T vector (Promega, Madison, Wis.) and sequence confirmed. Cells were plated in 24-well plates and co-transfected, using Lipofectamine 2000, with 1 μg firefly luciferase reporter plasmid and 5 ng Renilla plasmid (phRL-CMV) into which the 3′-UTR fragments were cloned. The luciferase activities were detected using Duo-luciferase reporter assay system (Promega). Human RAC1, CDC42, CDC42EP3, and ARPC5 3′-UTR luciferase reporter constructs were obtained from SwitchGear Genomics (Menlo Park, Calif.) and luciferase activities were measured per the manufacturer's instructions using LightSwitch luciferase assay kit.
# Human RAC1 3'-UTR = test: 3'-UTR luciferase reporter assay; format: cell-based; conditions: Du145 cells; 30 nM miR-141 vs NC oligos
# Description: as §1, §2
# CDC42 = test: Rho family GTPase activity assay (G-LISA); format: cell-based, human; conditions: Du145 cells, Lenti-141 MOI 10, 48 h
# Description: as §1
# (§3) The activity of Rho family of small GTPases including RhoA, RAC1 and CDC42 were detected using G-LISA small G-protein activation assays per the manufacturer's instructions (Cytoskeleton, Inc., Denver, Colo.; catalog# BK135).
# RAC1 = test: Rho family GTPase activity assay (G-LISA); format: cell-based, human; conditions: Du145 cells, Lenti-141 MOI 10, 48 h
# Description: as §1, §3
# RhoA = test: Rho family GTPase activity assay (G-LISA); format: cell-based, human; conditions: Du145 cells, Lenti-141 MOI 10, 48 h
# Description: as §1, §3
# SUZ12 = SUZ12 protein level, Western blotting; format: cell-based, human; conditions: PC3 and Du145, 30 or 60 nM, 72 h
# Description: FIG. 6A: Putative binding site of miR-141 in EZH2 3′-UTR. […] FIG. 6C is a qPCR analysis of EZH2 mRNA levels in CD44^+ PCa cells. Bars, mean±SD. *P<0.05; **P<0.01. […] Bars, mean±SD. **P<0.01. […] Western blotting was performed in PC3 and Du145 cells transfected with NC (60 nM) or miR-141 (30 or 60 nM) oligos (72 h). Relative protein levels were measured by densitometry and normalized to GAPDH levels (indicated below). […] Du145 cells plated one day before were treated with 1, 2, and 5 μM of DZNep for 96 h and then cells were harvested for invasion assays. **P<0.01. Inset, WB showing reduced EZH2 proteins by DZNep. […] Du145 cells were transfected with 10 nM scramble siRNA (siCon) or EZH2-targeting siRNAs (siEZH2) or siEZH2 plus anti-miR-141 (30 nM). 48 h later, cells were harvested for invasion assays. Bars, mean±SD. **P<0.01. […] Du145 cells were co-transfected with 30 nM NC or miR-141 oligos together with empty vector or pCMV-EZH2 construct. After 48 h, cells were harvested for invasion assay. Bars, mean±SD. **P<0.01.
substance,measurement,setting,value
"miR-141: miR-141 mirVana mimics (Life Technologies); microRNA-141 oligonucleotide may have SEQ ID NO: 1; in some experiments over-expressed by lentiviral vectors (UAACACUGUCUGGUAAAGAUGG; listed as RNA, further chemistry not given here) [miR-141 mirVana mimics (Life Technologies); in some experiments over-expressed by lentiviral vectors]",E-cadherin (CDH1) mRNA,"[1]; CD44+ Du145 cells, 30 nM, 48 h",significant increase
same,mRNA levels of mesenchymal markers including VIM and ZEB1,"[1]; CD44+ Du145 cells, 30 nM, 48 h",generally reduced
same,"mRNA levels of most other EMT markers including FN, ZEB2, SNAI1, SNAI2, and TWIST",[1]; bulk Du145 cells,did not reduce
same,E-cadherin mRNA,"[1]; bulk Du145 cells, 30 nM, 48 h",increased
same,VIM and ZEB1 mRNA,"[1]; bulk Du145 cells, 30 nM, 48 h",decreased
same,"protein levels of ARPC5, CDC42EP3, CDC42 and RAC1",[2],"downregulated, to varying degrees"
same,luciferase activity of ARPC5 3'-UTR construct,Human ARPC5 3'-UTR,inhibited
same,luciferase activity of RAC1 3'-UTR construct,Human RAC1 3'-UTR,inhibited
same,GTPase activity of CDC42,CDC42,suppressed
same,GTPase activity of RAC1,RAC1,suppressed
same,GTPase activity of RhoA,RhoA,not
same,SUZ12 protein level,SUZ12,reduced
